Assays:
[1] = test system: chow fed obese female Zucker rats; assay: Experiments B, C, D, E: serum lipids, glucose, insulin, body and liver weight in obese female Zucker rats, 14 days; type: in vivo, rat; conditions: for Body Weight Gain (% of Pretreatment) / HDL-Cholesterol (% of Pretreatment) / Non HDL-Cholesterol (% of Pretreatment) / Triglycerides (% of Pretreatment): 14 days
Method: In a number of different experiments, illustrative compounds of the invention and troglitazone were administered daily at various doses to 10-week old chow fed obese female Zucker rats for 14 days in the morning by oral gavage in 1.5% carboxymethylcellulose/0.2% Tween-20 (dosing vehicle). Animals were weighed daily. Animals were allowed free access to rodent chow and water throughout the study. Blood glucose was determined after a 6-hour fast in the afternoon without anesthesia from a tail vein. Serum was also prepared from a blood sample subsequently obtained from the orbital venous plexus (with O2/CO2 anesthesia) prior to and after one week treatment and used lipid and insulin determinations. At two weeks, blood glucose was again determined after a 6-hour fast without anesthesia from a tail vein. Soon thereafter, animals were sacrificed by CO2 inhalation in the evening and cardiac blood serum was collected and assessed for various lipids and insulin. Body weight was determined daily prior to dosing and at the time of euthanasia.

3T3-L1 cells = assay: Insulin sensitization: 14C-acetate incorporation into lipids in 3T3-L1 preadipocytes; type: cell-based; conditions: preadipocytes treated 4 days; insulin-dependent (30 nM insulin); FIG. 20
Method: The effects of Compound A on rate of differentiation of 3T3-L1 cells from a “committed pre-adipocyte” to an “adipocyte” phenotype in the absence or presence of insulin is tested. The differentiation of 3T3-L1 cells to an adipocyte-like phenotype is highly dependent upon insulin. […] In this assay the degree of differentiation was a reflection of the rate of lipid synthesis, as measured through incorporation of ^14C-acetate over 2 hours.
3T3-L1 stem cells were induced to differentiate with dexamethasone, isobutylmethylxanthine and insulin (Green and Kehinde, 1975, Cell 5:19-27). Cells were plated in Dulbecco's modified Eagle medium containing 10% calf serum and grown to confluence. Cells were then refreshed with 10% fetal calf serum, and treated with 0.5 mM isobutylmethylxanthine and 250 nM dexamethasone, but no additional insulin, for 48 hours. […]
The preadipocytes were then treated for 4 days with various concentrations of Compound A in 5% fetal calf serum in Dulbecco's modified Eagles medium, with or without a submaximal concentration of insulin (30 nM). […] Cell were then washed with phosphate buffered saline, lysed with 0.1 N NaOH, and ^14C-acetate incorporation into lipids was determined using phase separation and liquid scintillation counting.

[2] = Experiment C, 100 mg/kg, after two weeks of treatment

Structure (SMILES): CC(C)(CO)CCCCOCCCCC(C)(C)CO [Compound A, 6-(6-hydroxy-5,5-dimethylhexyloxy)-2,2-dimethyl-hexan-1-ol]
- Body Weight Gain (% of Pretreatment) ([1]; Experiment C, 1 mg/kg/day): +16.7 % of Pretreatment
- HDL-Cholesterol (% of Pretreatment) ([1]; Experiment C, 1 mg/kg/day): −24.1 % of Pretreatment
- Non HDL-Cholesterol (% of Pretreatment) ([1]; Experiment C, 1 mg/kg/day): −25.6 % of Pretreatment
- Triglycerides (% of Pretreatment) ([1]; Experiment C, 1 mg/kg/day): −8.8 % of Pretreatment
- Body Weight Gain (% of Pretreatment) ([1]; Experiment C, 3 mg/kg/day): +17.5 % of Pretreatment
- HDL-Cholesterol (% of Pretreatment) ([1]; Experiment C, 3 mg/kg/day): −3.7 % of Pretreatment
- Non HDL-Cholesterol (% of Pretreatment) ([1]; Experiment C, 3 mg/kg/day): −29.6 % of Pretreatment
- Triglycerides (% of Pretreatment) ([1]; Experiment C, 3 mg/kg/day): −24.6 % of Pretreatment
- Body Weight Gain (% of Pretreatment) ([1]; Experiment C, 10 mg/kg/day): +10.7 % of Pretreatment
- HDL-Cholesterol (% of Pretreatment) ([1]; Experiment C, 10 mg/kg/day): +154.4 % of Pretreatment
- Non HDL-Cholesterol (% of Pretreatment) ([1]; Experiment C, 10 mg/kg/day): −14.2 % of Pretreatment
- Triglycerides (% of Pretreatment) ([1]; Experiment C, 10 mg/kg/day): −50.9 % of Pretreatment
- Body Weight Gain (% of Pretreatment) ([1]; Experiment C, 30 mg/kg/day): +11.3 % of Pretreatment
- HDL-Cholesterol (% of Pretreatment) ([1]; Experiment C, 30 mg/kg/day): +369.7 % of Pretreatment
- Non HDL-Cholesterol (% of Pretreatment) ([1]; Experiment C, 30 mg/kg/day): +38.4 % of Pretreatment
- Triglycerides (% of Pretreatment) ([1]; Experiment C, 30 mg/kg/day): −42.0 % of Pretreatment
- glucose to insulin ratio ([1]; Experiment C, 100 mg/kg): reduced
- Body Weight Gain (% of Pretreatment) ([1]; Experiment C, 100 mg/kg/day): +9.2 % of Pretreatment
- HDL-Cholesterol (% of Pretreatment) ([1]; Experiment C, 100 mg/kg/day): +801.8 % of Pretreatment
- Non HDL-Cholesterol (% of Pretreatment) ([1]; Experiment C, 100 mg/kg/day): +45.1 % of Pretreatment
- Triglycerides (% of Pretreatment) ([1]; Experiment C, 100 mg/kg/day): −57.0 % of Pretreatment
- HDL-cholesterol increase [1, 2]: 802%
- elevation of HDL-cholesterol [1, 2]: 9 fold
- blood glucose ([1]; Experiment C, 100 mg/kg, fasted): tendency to lower blood glucose
- glucose to insulin ratio ([1]; Experiment C, 1 and 3 mg/kg, two weeks): declined by approximately ⅓ to ½
- weight gain ([1]; Experiment C, 10, 30 and 100 mg/kg, after one and two weeks): markedly reduced
- glucose to insulin ratio ([1]; Experiment C, 10 and 30 mg/kg): sustained at pretreatment levels
- minimal effective dose for reduction in serum triglycerides ([1]; Experiment C, FIG. 10): approximately 3 mg/kg
- dose at which elevation of serum total cholesterol begins ([1]; Experiment C, FIG. 11): approximately 10 mg/kg/day
- percent liver to body weight ([1]; Experiment C, after two weeks of treatment, FIG. 16): increased in a dose dependent manner
- serum triglyceride levels ([1]; Experiment C, doses 1-100 mg/kg, FIG. 10): reduced serum triglyceride levels at all doses
- rise in serum insulin ([1]; Experiment C, higher doses (10, 30, 100 mg/kg)): largely curtailed or minimized
- Body Weight Gain (% of Pretreatment) ([1]; Experiment D, 10 mg/kg/day): +2.2 % of Pretreatment
- HDL-Cholesterol (% of Pretreatment) ([1]; Experiment D, 10 mg/kg/day): +133.9 % of Pretreatment
- Non HDL-Cholesterol (% of Pretreatment) ([1]; Experiment D, 10 mg/kg/day): +49.3 % of Pretreatment
- Triglycerides (% of Pretreatment) ([1]; Experiment D, 10 mg/kg/day): −11.1 % of Pretreatment
- Body Weight Gain (% of Pretreatment) ([1]; Experiment D, 100 mg/kg/day): +4.5 % of Pretreatment
- HDL-Cholesterol (% of Pretreatment) ([1]; Experiment D, 100 mg/kg/day): +187.9 % of Pretreatment
- Non HDL-Cholesterol (% of Pretreatment) ([1]; Experiment D, 100 mg/kg/day): +7.5 % of Pretreatment
- Triglycerides (% of Pretreatment) ([1]; Experiment D, 100 mg/kg/day): −62.9 % of Pretreatment
- Body Weight Gain (% of Pretreatment) ([1]; Experiment E, 100 mg/kg/day): +19.1 % of Pretreatment
- HDL-Cholesterol (% of Pretreatment) ([1]; Experiment E, 100 mg/kg/day): +232.1 % of Pretreatment
- Non HDL-Cholesterol (% of Pretreatment) ([1]; Experiment E, 100 mg/kg/day): +7.2 % of Pretreatment
- Triglycerides (% of Pretreatment) ([1]; Experiment E, 100 mg/kg/day): −43.2 % of Pretreatment
- increase of 14C-acetate incorporation into lipids (3T3-L1 cells): approximately 40%
